We go through twelve compounds from ChEMBL document CHEMBL1201862, “PubChem BioAssay data set” (2004).

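96-well plates; 48 h exposure; 5 concentrations. Endpoints by linear interpolation between flanking doses. Not reached: highest tested concentration assigned. GI50: concentration for 50% inhibition of growth.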 Active and inactive are the calls of the source. Cut-off read from the data, not from the text of the source: active = GI50 up to about 1.1 µM and inactive = higher. Where only a bound is given, the exact number is not on record here.

Common to all, as to test: NCI tumour cell line growth inhibition, 48 h
Assay [1] has as its system HT-29.
The subject of assay [2] is UACC-62.
The test system of assay [3] is NCI-H226.
The subject of assay [4] is COLO 205.
Assay [5] concerns KM12.
Assay [6] deals with SK-OV-3.
Assay [7] relates to T47D.
The subject of assay [8] is OVCAR-5.
The subject of assay [9] is IGROV-1.
In assay [10] the test system is MCF7.
Assay [11] relates to SN12C.
The subject of assay [12] is NCI-H522.
The test system of assay [13] is CCRF-CEM.
Assay [14] deals with SF-268.
The subject of assay [15] is MDA-N.
For assay [16], the system named is MDA-MB-231.
The subject of assay [17] is NCI-H460.

As to `Cn1c(=O)[nH]c2[nH]c3ccccc3c2c1=O`, the GI50 in assay [1], in [2], in [3], in assay [4], in assay [5] and in assay [6] was > 100 µM (inactive) each time. In addition, the GI50 in assay [7], in assay [8], in [9], in [10], in assay [11] and in assay [12] was > 100 µM (inactive) in each case. Besides, the GI50 in assay [13], in assay [14], in assay [15] and in assay [16] was > 100 µM (inactive) each time.
Take `CC(C)(C)c1ccc2c(c1)CNCCNCc1cc(C(C)(C)C)ccc1OCC1(CO2)COc2ccc(C(C)(C)C)cc2CNCCNCc2cc(C(C)(C)C)ccc2OC1`: the GI50 was 0.665 µM (active) in [1]; 1.4 µM (inactive) in [2]; 1.55 µM (inactive) in assay [3]; 0.649 µM (active) in [4]; 0.388 µM (active) in [5]; 1.84 µM (inactive) in assay [6]. In addition, the GI50 in [7] is 1.91 µM (inactive); in assay [8], 1.72 µM (inactive); in [9], 1.28 µM (inactive); in [17], 0.276 µM (active); in assay [10], 0.461 µM (active); in assay [11], 0.404 µM (active). Also, the GI50 is 0.284 µM (active) in assay [12]; 0.2 µM (active) in assay [13]; 1.78 µM (inactive) in assay [14]; 0.649 µM (active) in assay [15]; 0.394 µM (active) in assay [16].
As to `COc1ccc(OC)c2c1C=CC(Br)=CC2`, the GI50 is 0.136 µM (active) in assay [1]; 0.137 µM (active) in assay [2]; 0.372 µM (active) in assay [3]; 0.314 µM (active) in assay [4]; 0.309 µM (active) in assay [5]; 0.0582 µM (active) in assay [6]. Moreover, the GI50 in assay [7] was 0.192 µM (active); in [9] it was 0.279 µM (active); in assay [17], 0.211 µM (active); in assay [10], 0.295 µM (active); in assay [11], 0.372 µM (active); in assay [12], 0.223 µM (active). The GI50 was 0.39 µM (active) in [13], 0.313 µM (active) in assay [14], 0.229 µM (active) in assay [15] and 0.285 µM (active) in assay [16].
`NNC(=O)c1ccccc1NC(=O)/C(=C/c1ccccc1)NC(=O)c1ccccc1`: the GI50 is > 100 µM (inactive) in assay [1]; > 100 µM (inactive) in [2]; > 100 µM (inactive) in assay [3]; > 100 µM (inactive) in assay [4]; 27.8 µM (inactive) in [5]; > 100 µM (inactive) in [6]. Moreover, the GI50 was > 100 µM (inactive) in assay [7]; > 100 µM (inactive) in assay [8]; 68.1 µM (inactive) in assay [9]; 80 µM (inactive) in assay [17]; > 100 µM (inactive) in assay [10]; > 100 µM (inactive) in assay [11]. The GI50 was > 100 µM (inactive) in [12]; 43.6 µM (inactive) in assay [13]; > 100 µM (inactive) in assay [14]; 72.4 µM (inactive) in [15]; 47.9 µM (inactive) in [16].
Turning to `Cc1ccc(/C=C2\CCCC(CN3CCCCC3)C2=O)cc1` (configuration not stated), the GI50 in assay [1] was 1.77 µM (inactive); in assay [2] it was 4.73 µM (inactive); in assay [3] it was 2.29 µM (inactive); in assay [4], 1.82 µM (inactive); in [5] it was 1.27 µM (inactive); in [6] it was 16.5 µM (inactive). The GI50 in assay [7] was 1.82 µM (inactive); in assay [8], 15 µM (inactive); in assay [9] it was 1.96 µM (inactive); in [17], 3.89 µM (inactive); in [10] it was 0.721 µM (active); in [11], 2.96 µM (inactive). Also, the GI50 in assay [12] is 1.79 µM (inactive); in assay [13] it was 0.757 µM (active); in assay [14], 2.09 µM (inactive); in assay [15], 2.77 µM (inactive); in [16] it was 1.85 µM (inactive).
Consider `Cc1ccc(Nc2nc(N)nc3c2ncn3C2OC(CO)C(O)C2O)cc1` (configuration not stated), for which the GI50 in assay [1], in assay [2], in assay [3], in assay [4], in assay [5] and in [6] was > 100 µM (inactive) in each case. The GI50 in [7], in assay [8], in [9], in assay [10], in [11] and in [12] was > 100 µM (inactive) each time. For the same compound, the GI50 in assay [13] is > 100 µM (inactive); in assay [15], > 100 µM (inactive); in [16], 98.9 µM (inactive).
With `C/C(Cl)=N/OC(=O)Nc1ccc(S(N)(=O)=O)c(C)c1`, the GI50 in assay [1] was 17.8 µM (inactive); in [2], 15.7 µM (inactive); in assay [3] it was 23.6 µM (inactive); in assay [4], 2.17 µM (inactive); in assay [5] it was 18.6 µM (inactive); in assay [6], > 43.5 µM (inactive). Also, the GI50 in assay [7] was 2.92 µM (inactive); in [8], 18.3 µM (inactive); in [9], 15.4 µM (inactive); in assay [17] it was 39.9 µM (inactive); in assay [10] it was 5.38 µM (inactive); in [11], 13.4 µM (inactive). Also, the GI50 in assay [12] was 1.45 µM (inactive); in assay [13] it was 1.07 µM (active); in [14], 26.1 µM (inactive); in assay [15], 11.7 µM (inactive); in [16], 8.26 µM (inactive).
For `C[C@@H]1C[C@](O)([C@@H](C)Cl)C(=O)O[C@@H]2CCN3CC=C(COC(=O)[C@]1(C)O)[C@H]23`, the GI50 in [1], in [2], in [3], in assay [4], in [5] and in assay [6] was > 100 µM (inactive) each time. Moreover, the GI50 was > 100 µM (inactive) in [7]; > 100 µM (inactive) in assay [8]; > 100 µM (inactive) in [9]; > 10 µM (inactive) in [17]; > 100 µM (inactive) in [10]; > 100 µM (inactive) in assay [12]. The GI50 in assay [13] is > 10 µM (inactive); in [14], > 100 µM (inactive); in assay [15], > 100 µM (inactive); in assay [16] it was > 100 µM (inactive).
Take `O=c1c2ccc(Cl)cc2oc2c(CNc3ccc(S(=O)(=O)Nc4nccs4)cc3)cccc12`: the GI50 in assay [1], in assay [2], in assay [3], in assay [4], in assay [5] and in [6] was > 100 µM (inactive) in each case. Moreover, the GI50 in assay [7], in [8], in [9], in assay [10], in assay [11] and in [12] was > 100 µM (inactive) throughout. Moreover, the GI50 in [13] is 91.6 µM (inactive); in [14], > 100 µM (inactive); in assay [15], > 100 µM (inactive); in assay [16] it was 98.6 µM (inactive).
`Cc1nn(C(=O)c2ccc(Cl)cc2)c2c1C(c1cccc([N+](=O)[O-])c1)SC(=N)N2` (configuration not stated): the GI50 in assay [1], in assay [2], in [3], in assay [4], in assay [5] and in [6] was > 10 µM (inactive) each time. The GI50 in assay [7], in assay [8], in [9], in assay [17], in assay [10] and in [11] was > 10 µM (inactive) in each case. The GI50 in assay [12], in [13], in [14], in assay [15] and in [16] was > 10 µM (inactive) each time.
As for `c1ccc(-c2nc(-c3ccccc3)c(-c3ccccc3)[nH]2)cc1`, the GI50 in assay [1] is > 94.6 µM (inactive); in [2], > 94.4 µM (inactive); in assay [3], > 100 µM (inactive); in assay [4], > 100 µM (inactive); in assay [5] it was > 93.8 µM (inactive); in [6] it was > 100 µM (inactive). Moreover, the GI50 in [7] was 42.3 µM (inactive); in assay [8] it was > 100 µM (inactive); in assay [9] it was > 91.6 µM (inactive); in assay [17], 44.9 µM (inactive); in assay [10] it was 70.3 µM (inactive); in assay [11], > 87.5 µM (inactive). The GI50 was > 82.6 µM (inactive) in assay [12]; 17 µM (inactive) in [13]; 55.2 µM (inactive) in assay [14]; > 88.7 µM (inactive) in assay [15]; > 72.6 µM (inactive) in assay [16].
As to `CCCCCCCCCCCC/C=C\CC[C@@H](O)[C@H](O)CC[C@H](O)[C@@H]1CC[C@@H](CCCCCCCC2=C[C@H](C)OC2=O)O1` [GIGANTRIONENIN], the GI50 is 2.31 µM (inactive) in [1]; 1.35 µM (inactive) in assay [2]; 1.48 µM (inactive) in assay [3]; 2.98 µM (inactive) in assay [4]; 3.92 µM (inactive) in assay [5]; 3.43 µM (inactive) in assay [7]. Moreover, the GI50 was 18.5 µM (inactive) in assay [8]; 3.18 µM (inactive) in assay [9]; 2.91 µM (inactive) in [17]; 2.28 µM (inactive) in [10]; 5.05 µM (inactive) in assay [11]; 7.45 µM (inactive) in [12]. Moreover, the GI50 was 1.44 µM (inactive) in [13], 4.42 µM (inactive) in assay [14], 3.91 µM (inactive) in assay [15] and 7.18 µM (inactive) in [16].
